# Experimental data from patent US11491245B2, “Gadolinium chelate compounds for use in magnetic resonance imaging” (BAYER PHARMA AKTIENGESELLSCHAFT, priority 2015, dated 2022).
# Entries after “also recorded” stand apart in the source; their conditions may differ.
# Key:
# [1] = Relaxivity measurements at 1.41 T; type: physicochemical
# Procedure, shortened: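 T1 by inversion recovery and T2 by CPMG at 60 MHz, 37° C, relaxation delay ≥5×T1. Three Gd concentrations between 0.05 and 2 mM in water, FBS or fresh citrated human plasma. r1/r2 from slope of Ri versus Gd concentration (verified by ICP-MS).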
# [2] = Excretion and residual organ gadolinium concentration; type: in vivo, male rats (Han-Wistar); details: male rats, 0.1 mmol Gd/kg i.v.
# Procedure: The excretion and organ distribution of Example 3 were determined in male rats (Han-Wistar, 100-110 g, n=3). The compound was administered as a sterile aqueous solution (54 mmol Gd/L) as a bolus in the tail vein of the animals. The dose was 0.1 mmol Gd/kg. Urine was collected in the following time periods 0-1 h, 1-3 h, 3-6 h, 6-24 h, 1-2 d and 2-5 d post injection and feces 0-1 d, 1-2 d and 2-5 d post injection. As a control, 3 animals were treated in the same way with Gadovist®, a low molecular weight contrast agent. On day 7 the animals were sacrificed and the following organs were excised: blood, liver, kidney, spleen, heart, lung, brain, mesenteric lymph nodes, muscle, skin, stomach, gut, bone and bone marrow. The remaining carcass was freeze dried and ground to a fine powder. The Gd concentration in the organs and the carcass was determined by ICP-MS (ICP-MS Agilent 7500a, Waldbronn, Germany). The Example 3 is excreted quickly via the kidneys. After 3 h 95.8%±3.4% of the injected dose was found in urine and 96.9%±3.7% after 5 days. About 1.4%±0.6% was excreted via the feces. Less than 0.5% of the administered dose was present in the body 7 days after the injection. The individual organs contained less than 0.03% of the injected dose, except the kidney which is the excretion organ.
# [3] = Chemical stability (autoclaving at 121° C.); type: physicochemical; details: 5 mmol Gd/L in 10 mM Tris-HCl buffer, pH 7.4, 121° C. for 20 min
# Water solubility = type: physicochemical; details: 10 mM Tris-HCl buffer, 20° C.
# Procedure, shortened: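 Solid compound added stepwise to 10 mM Tris-HCl buffer at 20° C., shaken and sonicated 5 min, then left overnight at 20° C. Gadolinium concentration in the resulting suspension measured by ICP-MS.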
# [4] = Off target activity screen (LeadProfilingScreen®, radioligand binding and enzyme assays); details: commercial radioligand binding and enzyme assays
# GS9L brain tumors = experiment: Contrast-enhanced MRI of brain tumors in rats; type: in vivo, male Fisher rats (F344); details: GS9L rat brain tumors, 0.1 mmol Gd/kg bw vs Reference compound 1 0.1 mmol Gd/kg bw, FIG. 11A
# [5] = Gadolinium release after the addition of zinc and phosphate (transmetallation); details: phosphate buffer pH 7.00, 2.5 mmol/L gadolinium complex, 2.5 mmol/L ZnCl2, 37° C., up to 72 h, FIG. 2
# Procedure: The technique is based on measurement of the evolution of the water proton paramagnetic longitudinal relaxation rate in phosphate buffer (pH 7.00, 26 mmol/L, KH2PO4 Merck, Hessen, Germany) containing 2.5 mmol/L gadolinium complex and 2.5 mmol/L ZnCl2 Sigma-Aldrich, Munich, Germany). […] The mixture was vigorously stirred, and 300 μL were taken out for the relaxometric study at 0 min, 60 min, 120 min, 3 h, 4 h, 5 h, 24 h, 48 h and 72 h. The measurements were performed on a MiniSpec mq60 spectrometer (Bruker Analytik, Karlsruhe, Germany) at 60 MHz and 37° C.
smiles,measurement,setting,value
"CC(C(=O)NCC(=O)NCC(CNC(=O)CNC(=O)C(C)N1CCN(CC(=O)[O-])CCN(CC(=O)[O-])CCN(CC(=O)[O-])CC1)(CNC(=O)CNC(=O)C(C)N1CCN(CC(=O)[O-])CCN(CC(=O)[O-])CCN(CC(=O)[O-])CC1)CNC(=O)CNC(=O)C(C)N1CCN(CC(=O)[O-])CCN(CC(=O)[O-])CCN(CC(=O)[O-])CC1)N1CCN(CC(=O)[O-])CCN(CC(=O)[O-])CCN(CC(=O)[O-])CC1.[Gd+3].[Gd+3].[Gd+3].[Gd+3] (stereo not shown) [Example 3, Tetragadolinium [4,10-bis(carboxylatomethyl)-7-{3,6,12,15-tetraoxo-16-[4,7,10-tris-(carboxylatomethyl)-1,4,7,10-tetraazacyclododecan-1-yl]-9,9-bis({[({2-[4,7,10-tris-(carboxylatomethyl)-1,4,7,10-tetraazacyclododecan-1-yl]propanoyl}amino)acetyl]-amino}methyl)-4,7,11,14-tetraazaheptadecan-2-yl}-1,4,7,10-tetraazacyclododecan-1-yl]acetate]",r1 FBS,"[1]; fetal bovine serum, 1.41 T, 37° C., normalized to Gd",11.5 L/mmol/s
same,r1 human plasma,"[1]; human plasma, 1.41 T, 37° C., normalized to Gd",11.8 L/mmol/s
same,relaxivity relative to reference compound 1,[1]; see Example A,approximately 2 fold
same,r1 water,"[1]; water, 1.41 T, 37° C., normalized to Gd",10.1 L/mmol/s
same,Feces excretion 0-1 d post injection,[2],1.13 ± 0.62% Dose
same,Feces excretion 1-2 d post injection,[2],0.10 ± 0.02% Dose
same,Feces excretion 2-5 d post injection,[2],0.13 ± 0.01% Dose
same,Total recovery,[2],98.8 ± 3.1% Dose
same,Urine excretion 0-1 h post injection,[2],90.36 ± 4.4% Dose
same,Urine excretion 1-3 h post injection,[2],5.43 ± 1.04% Dose
same,Urine excretion 1-2 d post injection,[2],0.14 ± 0.01% Dose
same,Urine excretion 2-5 d post injection,[2],0.34 ± 0.03% Dose
same,Urine excretion 3-6 h post injection,[2],0.46 ± 0.38% Dose
same,Urine excretion 6-24 h post injection,[2],0.17 ± 0.02% Dose
same,administered dose present in the body 7 days after the injection,[2],Less than 0.5%
same,excreted via the feces,[2],About 1.4%
same,Σ organs and carcass 7 d post injection,[2],0.49 ± 0.01% Dose
same,injected dose in the individual organs (except the kidney),[2]; 7 days,less than 0.03%
same,injected dose found in urine after 3 h,[2]; cumulative,95.8%
same,injected dose found in urine after 5 days,[2]; cumulative,96.9%
same,appearance of the solution after autoclaving,[3],still clear and colorless
same,Solubility,Water solubility,>1400 mmol Gd/L
same,off target activity,[4],no critical finding
same,lesion-to-brain contrast at the same dose,GS9L brain tumors,higher lesion-to-brain contrast and an excellent demarcation of the tumor rim
same,stability against transmetallation (relative longitudinal relaxation rate R1p(t)/R1p(0) versus time),[5],comparable to the high stability macrocyclic Reference compound 1 (Gadovist®); also recorded: comparable to the high stability of Reference compound 1 (Gadovist®)
